Columns and labels:
Assay in all cases: relative viability (nuclei count vs DMSO), 5 days (fraction); higher = more cells survive
BGJ398 + Pictilisib = compound: CCN1CCN(c2ccc(Nc3cc(N(C)C(=O)Nc4c(Cl)c(OC)cc(OC)c4Cl)ncn3)cc2)CC1 [BGJ398] + CS(=O)(=O)N1CCN(Cc2cc3nc(-c4cccc5[nH]ncc45)nc(N4CCOCC4)c3s2)CC1 [Pictilisib] (partner 1 µM)
Procedure, shortened: (§1)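 Cells from lung cancer lines were seeded into 1536-well plates and, one day later, dosed by pin tool. Treatments were either a single drug or a fixed dose of an anchor drug with five library-drug doses (not always all listed) in √10 steps. After 5 days, nuclei were stained in a one-step fixation (final 0.05% Triton X-100, 1% formaldehyde, 1 ug/ml Hoechst) and counted on 4× images, and relative viability is the treated-to-vehicle nuclei ratio, as the median of duplicate plates.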

[1] = compound: C1=CC2=NC=CN=C2C=C1/C=C/3\C(=O)NC(=O)S3 + CC(=O)Nc1cccc(-n2c(=O)n(C3CC3)c(=O)c3c(Nc4ccc(I)cc4F)n(C)c(=O)c(C)c32)c1 [Trametinib] (partner 0.02 µM)
Procedure, shortened: as §1

BGJ398 + OSI-027 = compound: CCN1CCN(c2ccc(Nc3cc(N(C)C(=O)Nc4c(Cl)c(OC)cc(OC)c4Cl)ncn3)cc2)CC1 [BGJ398] + COc1cccc2cc(-c3nc([C@H]4CC[C@H](C(=O)O)CC4)n4ncnc(N)c34)[nH]c12 [OSI-027] (partner 0.5 µM)
Procedure, shortened: as §1

[2] = compound: C1=CC2=NC=CN=C2C=C1/C=C/3\C(=O)NC(=O)S3 + Cc1nc(Nc2ncc(C(=O)Nc3c(C)cccc3Cl)s2)cc(N2CCN(CCO)CC2)n1 [Dasatinib] (partner 0.075 µM)
Procedure, shortened: as §1

UMC-11
relative viability (BGJ398 + Pictilisib; first compound 0.01 µM): 0.839
relative viability (BGJ398 + Pictilisib; first compound 0.03162 µM): 0.686
relative viability (BGJ398 + Pictilisib; first compound 0.1 µM): 0.897
relative viability (BGJ398 + Pictilisib; first compound 0.3162 µM): 0.73
relative viability (BGJ398 + Pictilisib; first compound 1 µM): 0.707
relative viability ([1]; first compound 0.02 µM): 0.697
relative viability ([1]; first compound 0.06325 µM): 0.792
relative viability ([1]; first compound 0.2 µM): 0.75
relative viability ([1]; first compound 0.6325 µM): 0.663
relative viability ([1]; first compound 2 µM): 0.81
relative viability (BGJ398 + OSI-027; first compound 0.01 µM): 0.494
relative viability (BGJ398 + OSI-027; first compound 0.03162 µM): 0.449
relative viability (BGJ398 + OSI-027; first compound 0.1 µM): 0.53
relative viability (BGJ398 + OSI-027; first compound 0.3162 µM): 0.411
relative viability (BGJ398 + OSI-027; first compound 1 µM): 0.429
relative viability ([2]; first compound 0.02 µM): 0.467
relative viability ([2]; first compound 0.06325 µM): 0.523
relative viability ([2]; first compound 0.2 µM): 0.427
relative viability ([2]; first compound 0.6325 µM): 0.489
relative viability ([2]; first compound 2 µM): 0.519

Reference: the supplement of paper PMC10307832
